Like-named read-outs stand apart in the source and are kept apart here. Marks after values point to notes of the source that are not given here.
Key:
[1] = system: SM preparations from the corpus gastric muscle; assay: Ex vivo bioelectrical activity of smooth muscle preparations, single sucrose gap method; set-up: species or system Wistar rats; conditions: 5 × 10^−5 M; for Amplitude of slow waves, Measured value / Amplitude of spike potentials, Measured value / Number of slow waves, Measured value / Number of spike potentials, Measured value: 10 min, n = 7, mean ± SEM
Protocol: Adult male Wistar rats weighing 280–300 g were used. Animals were housed in standard laboratory conditions (23 to 25 °C, 50–55% humidity, 12/12 h light/dark cycle), while food and water were provided ad libitum.
Circular SM preparations were dissected from the corpus gastric muscle (26–28 mm long and 0.8–0.9 mm wide; without mucosa). Two or three muscle strips were taken from the rat stomach. The number of SM preparations used for each data point is indicated by n. After dissection, the tissues must prevent loss of viability, so during the dissection, the tissues were systematically moistened with a solution (NaCl:KCl:CaCl2 in ratio 27.2:1.1:1) prepared at 4 °C.
The BEA of SM preparations was investigated by means of the single sucrose gap method with silver non-polarizable freshly chlorinated electrodes. The muscle strips were divided into 3 zones: two electrode sections were flushed with isotonic KCl solution and Krebs solution (pH 7.3), respectively, and separated by a sucrose layer of high electric resistance. Krebs contained the following (in mM): NaCl 120; KCl 5.9; CaCl2 2.5; MgCl2 1.2; NaH2PO4 1.2; NaHCO3 15.4; glucose 11.5. All the ingredients for this solution were of analytical grade and obtained from Merck (Darmstadt, Germany). Deionized water (18.2 mX/cm^2) was used thoroughly. The KCl solution is similar to the Krebs solution but with an equimolar substitution of NaCl with KCl. An isotonic sucrose solution, due to its very high specific resistance (about 10^6 Ω·cm), provides the best possible separation of the sucrose solution from the physiological solution in the “normal” pool, on the one hand, and the solution providing a zero value of the membrane potential in the pool with another recording electrode.
The inflow rate of each solution (Krebs, KCl, and isotonic sucrose solution) was controlled by a needle valve and continuously aerated with a mixture of 95% O2 and 5% CO2, and the temperature was maintained at 37 °C. A potential difference between the two end sections of the gap (control conditions) was achieved by means of silver non-polarizable, freshly chlorinated electrodes and after a 40-min period of adaptation and stabilization was accepted as the initial (control). The Krebs solution was changed several times during the adaptation period. The viability of the SM preparations was periodically tested by treatment with 1 × 10^−6 M ACh.
The membrane potential value was visualized by means of a Linseis recorder (Selb, Germany). A pair of measuring electrodes is located on both sides of the sucrose sections. The pH (pH 7.3; 37 °C) of the Krebs bathing solution was measured before each experiment by pH-meter HI5521 (Hanna Instruments Inc., Woonsocket, RI, USA). […]
The new substances were dissolved initially in dimethyl sulphoxide (DMSO) to prepare a 5 × 10^−2 M stock solution. Further dilutions were made in distilled deionized water and were applied by adding aliquots of their concentrated solutions to the tissue bath.

[2] = MTT cell viability assay; format: cell-based; conditions: mouse, CCL-1, normal murine fibroblast cells, read-out: In vitro cytotoxicity (IC50)
Protocol: In order to evaluate the in vitro biocompatibility of the experimental compounds, a series of cell viability assays were performed against human malignant leukemic cell lines (LAMA-84, K-562) as well as normal murine fibroblast cells (CCL-1). All cell lines were purchased from the German Collection of Microorganisms and Cell Cultures (DSMZ GmbH, Braunschweig, Germany). Cell cultures were cultivated in a growth medium RPMI 1640 supplemented with 10% fetal bovine serum (FBS), 5% L-glutamine, and incubated under standard conditions of 37 °C and 5% humidified CO2 atmosphere.
The experimental design involved a number of cytotoxicity assays that measured cell growth inhibition by the newly synthesized compounds. Cell viability was evaluated using a standard MTT-based colorimetric assay. Exponential-phased cells were harvested and seeded (100 μL/well) in 96-well plates at the appropriate density (3 × 10^5) for the suspension cultures (LAMA-84 and K-562) and 1.5 × 10^5 for the adherent one (CCL-1). Cells were treated and incubated with various concentrations of the experimental compounds in the concentration range of 400-6.25 µM. After exposure time of 72 h, a filter-sterilized MTT substrate solution (5 mg/mL in PBS) was added to each well of the culture plate. A further 1–4 h incubation allowed for the formation of purple insoluble formazan precipitates. The latter were dissolved in isopropyl alcohol solution containing 5% formic acid prior to absorbance measurement at 550 nm using a microplate reader (Labexim LMR-1). Collected absorbance values were blanked against MTT and isopropanol solution and normalized to the mean value of the untreated control (100% cell viability). Semi-logarithmic “dose–response” curves were constructed and the half-inhibitory concentrations of the screened compounds against each tested cell line were calculated. Values of p ≤ 0.05 were considered statistically significant.

CC(=O)NC(Cc1ccccc1)C(C)C (stereo not drawn) [Compound 4a, N-(3-methyl-1-phenylbutan-2-yl)acetamide]
Amplitude of slow waves, Measured value [1]: 4.32 ± 0.38 mV | Amplitude of spike potentials, Measured value [1]: 0 * mV | Number of slow waves, Measured value [1]: 4.72 ± 0.55 min⁻¹ | Number of spike potentials, Measured value [1]: 0 * min^−1 | effect on bioelectrical activity (slow waves, spike potentials) ([1]; in words): complete disappearance of the spike potentials | IC50 at 72 h ([2]; CCL-1 normal fibroblast cells): > 300 µM

CC(C)C(N)Cc1ccccc1 (stereo not drawn) [Compound 3, 3-Methyl-1-phenylbutan-2-amine]
Amplitude of slow waves, Measured value [1]: 5.28 ± 0.33 mV | Amplitude of spike potentials, Measured value [1]: 2.61 ± 0.16 mV | Number of slow waves, Measured value [1]: 4.90 ± 0.09 min⁻¹ | Number of spike potentials, Measured value [1]: 48.22 ± 0.39 * min^−1 | Changes in the membrane potential ([1]; base activity taken as 100%, ↑ depolarization, ↓ hyperpolarization): 55% | IC50 at 72 h [2]: > 300 µM
